Each compound was assayed against T1, CCR-5 receptor (Homo sapiens, UniProt P51681) (assay: 125I-gp120/sCD4/CCR-5 binding assay (CCR-5 receptor binding assay)). Conditions: 10 μM compound; 125I-gp120/sCD4 binding to membranes from CCR-5/L 1.2 cells.
T1 construct: membranes prepared from CCR-5/L 1.2 cells; expressed in transfected cells; host or cells: L1.2 cells (CCR-5/L 1.2), membrane preparation
Procedure: The ^125I-gp120/sCD4/CCR-5 binding assay is carried out similarly as described in Wu et al., Nature, 1996;384:179-183. Briefly, the envelope gp120 protein derived from HIV-1 JR-FL (Trkola et al., Nature, 1996;384:184-186), a M-tropic strain, is iodinated using solid phase lactoperoxidase to a specific activity of 20 μCi/μg. For each binding reaction (in a final volume of 100 μL binding buffer [50 mM HEPES, pH 7.5, 1 mM CaCl2, 5 mM MgCl2, and 0.5% BSA]), 25 μL (2.5 μg) of membranes prepared from CCR-5/L 1.2 cells are mixed with 25 μL (3 nM) sCD4, followed by 25 μL (0.1 nM) radiolabeled gp120 in the presence or absence of 25 μL compound dissolved in DMSO (final concentration of DMSO 0.5%). The reactions are incubated at room temperature for 45 to 60 minutes and stopped by transferring the mixture to GFB filter plates, which are then washed 3 to 4 times with binding buffer containing 0.5 M NaCl. The plates are dried and MicroScint scintillation fluid is added before counting.

T1 sequence (P51681 whole entry): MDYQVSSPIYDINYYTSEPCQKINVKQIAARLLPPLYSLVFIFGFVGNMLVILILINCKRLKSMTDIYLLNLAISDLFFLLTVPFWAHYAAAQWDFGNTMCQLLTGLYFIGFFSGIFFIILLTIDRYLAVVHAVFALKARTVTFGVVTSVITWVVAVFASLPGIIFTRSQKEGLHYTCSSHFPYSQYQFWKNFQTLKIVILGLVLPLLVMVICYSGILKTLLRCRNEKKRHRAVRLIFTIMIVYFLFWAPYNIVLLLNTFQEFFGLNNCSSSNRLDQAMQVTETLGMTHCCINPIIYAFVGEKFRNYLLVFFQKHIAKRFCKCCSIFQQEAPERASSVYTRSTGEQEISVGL

| SMILES | % Inhib. @ 10 μM |
| --- | --- |
| O=C1C(=Cc2cccc(F)c2)SC(c2cccc(Cl)c2)N1CCCN1CCN(c2ccccn2)CC1 (stereo not shown) [Compound 28, 2-(3-Chloro-phenyl)-5-(3-fluoro-benzylidene)-3-[3-(4-pyridin-2-yl-piperazin-1-yl)-propy1]-thiazolidin-4-one] | 78.8% |
| O=C1C(=Cc2cccc(C(F)(F)F)c2)SC(c2cccc(Cl)c2)N1CCCN1CCN(c2ncccn2)CC1 (stereo not shown) [Compound 32] | 81.8% |
| O=C1C(=Cc2ccccc2)SC(c2cccc([N+](=O)[O-])c2)N1CCCN1CCN(c2ncccn2)CC1 (stereo not shown) [Compound 39] | 70.1% |

Same assay, conditions: 10 μM compound; 125I-gp120/sCD4 binding to membranes from CCR-5/L 1.2 cells; read-out: % Inhib. @ 10 μM

| SMILES | inhibition at 10 µM |
| --- | --- |
| O=C1C(=Cc2cccc(F)c2)SC(c2cccc(C(F)(F)F)c2)N1CCCN1CCCCC1 (stereo not shown) [Compound 25, 5-(3-Fluoro-benzylidene)-3-(3-piperidin-1-yl-propyl)-2-(3-trifluoromethyl-phenyl)-thiazolidin-4-one] | 50.7% |
| O=C1C(=Cc2cccc(F)c2)SC(c2cccc(F)c2)N1CCCN1CCN(c2ccccn2)CC1 (stereo not shown) [Compound 26, 5-(3-Fluoro-benzylidene)-2-(3-fluoro-phenyl)-3-[3-(4-pyridin-2-yl-piperazin-1-yl)-propyl]-thiazolidin-4-one] | 75.3% |
| O=C1C(=Cc2cccc(F)c2)SC(c2cccc(F)c2)N1CCCN1CCN(C2CCCCC2)CC1 (stereo not shown) [Compound 27, 3-[3-(4-Cyclohexyl-piperazin-1-yl)-propyl]-5-(3-fluoro-benzylidene)-2-(3-fluoro-phenyl)-thiazolidin-4-one] | 57.6% |
| O=C1C(=Cc2cccc(F)c2)SC(c2cccc(Cl)c2)N1CCCN1CCN(c2ncccn2)CC1 (stereo not shown) [Compound 29, 2-(3-Chloro-phenyl)-5-(3-fluoro-benzylidene)-3-[3-(4-pyrimidin-2-yl-piperazin-1-yl)-propyl]-thiazolidin-4-one] | 86.8% |
| O=C1C(=Cc2cccc(C(F)(F)F)c2)SC(c2cccc(Cl)c2)N1CCCN1CCN(c2ccccn2)CC1 (stereo not shown) [Compound 30, 2-(3-Chloro-phenyl)-3-[3-(4-pyridin-2-yl-piperazin-1-yl)-propyl]-5-(3-trifluoromethyl-benzylidene)-thiazolidin-4-one] | 61.7% |
| O=C1C(=Cc2cccc(C(F)(F)F)c2)SC(c2cccc(Cl)c2)N1CCCN1CCCCC1 (stereo not shown) [Compound 31, 2-(3-Chloro-phenyl)-3-(3-piperidin-1-yl-propyl)-5-(3-trifluoromethyl-benzylidene)-thiazolidin-4-one] | 54.4% |
| O=C1C(=Cc2ccccc2)SC(c2cccc(C(F)(F)F)c2)N1CCCN1CCN(c2ccccn2)CC1 (stereo not shown) [Compound 33, 5-Benzylidene-3-[3-(4-pyridin-2-yl-piperazin-1-yl)-propyl]-2-(3-trifluoromethyl-phenyl)-thiazolidin-4-one] | 62% |
| O=C1C(=Cc2ccccc2)SC(c2cccc(C(F)(F)F)c2)N1CCCN1CCN(c2ncccn2)CC1 (stereo not shown) [Compound 34, 5-Benzylidene-3-[3-(4-pyrimidin-2-yl-piperazin-1-yl)-propyl]-2-(3-trifluoromethyl-phenyl)-thiazolidin-4-one] | 79.2% |
| O=C1C(=Cc2ccccc2)SC(c2cccc(F)c2)N1CCCN1CCN(c2ccccn2)CC1 (stereo not shown) [Compound 35, 5-Benzylidene-2-(3-fluoro-phenyl)-3-[3-(4-pyridin-2-yl-piperazin-1-yl)-propyl]-thiazolidin-4-one] | 76.2% |
| O=C1C(=Cc2ccccc2)SC(c2cccc(F)c2)N1CCCN1CCCCC1 (stereo not shown) [Compound 36, 5-Benzylidene-2-(3-fluoro-phenyl)-3-(3-piperidin-1-yl-propyl)-thiazolidin-4-one] | 63.3% |
| O=C1C(=Cc2ccccc2)SC(c2cccc(F)c2)N1CCCN1CCC(N2CCCCC2)CC1 (stereo not shown) [Compound 37, 5-Benzylidene-3-(3-[1,4′]bipiperidinyl-1′-yl-propyl)-2-(3-fluoro-phenyl)-thiazolidin-4-one] | 56.6% |
| O=C1C(=Cc2ccccc2)SC(c2cccc(F)c2)N1CCCN1CCN(C2CCCCC2)CC1 (stereo not shown) [Compound 38, 5-Benzylidene-3-[3-(4-cyclohexyl-piperazin-1-yl)-propyl]-2-(3-fluoro-phenyl)-thiazolidin-4-one] | 54.4% |
| O=C1C(=Cc2ccccc2)SC(c2cccc(Cl)c2)N1CCCN1CCN(c2ccccn2)CC1 (stereo not shown) [Compound 40, 5-Benzylidene-2-(3-chloro-phenyl)-3-[3-(4-pyridin-2-yl-piperazin-1-yl)-propyl]-thiazolidin-4-one] | 84.3% |
| O=C1C(=Cc2ccccc2)SC(c2cccc(Cl)c2)N1CCCN1CCC(N2CCCCC2)CC1 (stereo not shown) [Compound 41, 5-Benzylidene-3-(3-[1,4′]bipiperidinyl-1′-yl-propyl)-2-(3-chloro-phenyl)-thiazolidin-4-one] | 62.4% |
| O=C1C(=Cc2ccccc2)SC(c2cccc(Cl)c2)N1CCCN1CCOCC1 (stereo not shown) [Compound 42, 5-Benzylidene-2-(3-chloro-phenyl)-3-(3-morpholin-4-yl-propyl)-thiazolidin-4-one] | 64.7% |
| O=C1C(=Cc2ccccc2)SC(c2cccc(Cl)c2)N1CCCN1CCN(c2ncccn2)CC1 (stereo not shown) [Compound 43, 5-Benzylidene-2-(3-chloro-phenyl)-3-[3-(4-pyrimidin-2-yl-piperazin-1-yl)-propyl]-thiazolidin-4-one] | 95% |
| O=C1C(=Cc2ccccc2)SC(c2cccc(Cl)c2)N1CCCN1CCN(C2CCCCC2)CC1 (stereo not shown) [Compound 44, 5-Benzylidene-2-(3-chloro-phenyl)-3-[3-(4-cyclohexyl-piperazin-1-yl)-propyl]-thiazolidin-4-one] | 54.5% |

Same assay, conditions: block of 125I-gp120 (HIV-1 JR-FL)/sCD4 binding to membranes from CCR-5/L 1.2 cells

| SMILES | IC50 |
| --- | --- |
| O=C1/C(=C\c2ccccc2)SC(c2cccc(Cl)c2)N1CCCN1CCCCC1 (stereo not shown) [Compound 3, 5-Benzylidene-2-(3-chlorophenyl)-3-(3-piperidin-1-yl-propyl)-thiazolidin-4-one] | 280 nM |
| O=C1/C(=C\c2cccc(F)c2)SC(c2cccc(Cl)c2)N1CCCN1CCCCC1 (stereo not shown) [Compound 4, 2-(3-Chlorophenyl)-5-(3-fluorobenzylidene)-3-(3-piperidin-1-yl-propyl)-thiazolidin-4-one] | 200 nM |
| O=C1/C(=C\c2cccc(F)c2)SC(c2ccccc2)N1CCCN1CCC(N2CCCCC2)CC1 (stereo not shown) [Compound 5, 3-(3-[1,4′]Bipiperidinyl-1′-yl-propyl)-5-(3-fluorobenzylidene)-2-phenyl-thiazolidin-4-one] | 710 nM |
| O=C1/C(=C\c2cccc(F)c2)SC(c2ccccc2)N1CCCN1CCOCC1 (stereo not shown) [Compound 7, 5-(3-Fluorobenzylidene)-3-(3-morpholin-4-yl-propyl)-2-phenyl-thiazolidin-4-one] | 140 nM |
| O=C1/C(=C\c2ccncc2)SC(c2cccc(Cl)c2)N1CCCN1CCCCC1 (stereo not shown) [Compound 8, 2-(3-Chlorophenyl)-3-(3-piperidin-1-yl-propyl)-5-(pyridin-4-yl-methylene)-thiazolidin-4-one] | 780 nM |
| O=C1/C(=C\c2ccc[nH]2)SC(c2cccc(Cl)c2)N1CCCN1CCCCC1 (stereo not shown) [Compound 9, 2-(3-Chlorophenyl)-3-(3-piperidin-1-yl-propyl)-5-(1 H-pyrrol-2-yl-methylene)-thiazolidin-4-one] | 390 nM |
| O=C1/C(=C\c2ccsc2)SC(c2cccc(Cl)c2)N1CCCN1CCCCC1 (stereo not shown) [Compound 10, 2-(3-Chlorophenyl)-3-(3-piperidin-1-yl-propyl)-5-(thiophen-3-yl-methylene)-thiazolidin-4-one] | 1040 nM |
| Cn1cccc1C=C1SC(c2cccc(Cl)c2)N(CCCN2CCCCC2)C1=O (stereo not shown) [Compound 11, 2-(3-Chlorophenyl)-5-(1-methyl-1H-pyrrol-2-ylmethylene)-3-(3-piperidin-1-yl-propyl)-thiazolidin-4-one] | 980 nM |
| CCC(/C=C1/SC(c2cccc(Cl)c2)N(CCCN2CCCCC2)C1=O)CC (stereo not shown) [Compound 12, 2-(3-Chlorophenyl)-5-(2-ethylbutylidene)-3-(3-piperidin-1-yl-propyl)-thiazolidin-4-one] | 6640 nM |
| CN(C)CC(C)(C)/C=C1/SC(c2cccc(Cl)c2)N(CCCN2CCCCC2)C1=O (stereo not shown) [Compound 13, 2-(3-Chlorophenyl)-5-(3-dimethylamino-2,2-dimethylpropylidene)-3-(3-piperidin-1-yl-propyl)-thiazolidin-4-one] | 2820 nM |
| O=C1/C(=C\c2cnc3ccccc3c2)SC(c2cccc(Cl)c2)N1CCCN1CCCCC1 (stereo not shown) [Compound 18, 2-(3-Chlorophenyl)-3-(3-piperidin-1-yl-propyl)-5-(quinolin-3-ylmethylene)-thiazolidin-4-one] | 4120 nM |
| O=C1C(=Cc2ccccc2)SC(c2ccccc2)N1CCCN1CCCCCC1 (stereo not shown) [Compound 21, 3-(3-Azepan-1-ylpropyl)-5-benzylidene-2-phenyl-thiazolidin-4-one] | 1400 nM |
| O=C1/C(=C\c2cccc(F)c2)SC(c2cccc(Cl)c2)N1CCCN1CCC(N2CCCCC2)CC1 (stereo not shown) [Compound 22, 3-(3-[1,4′]Bipiperidinyl-1′-yl-propyl)-2-(3-chlorophenyl)-5-(3-fluorobenzylidene)-thiazolidin-4-one] | 400 nM |
| O=C1C(=Cc2ccccc2)[S+]([O-])C(c2cccc(Cl)c2)N1CCCN1CCCCC1 (stereo not shown) [Compound 24, 5-Benzylidene-2-(3-chlorophenyl)-1-oxo-3-(3-piperidin-1-yl-propyl)-thiazolidin-4-one] | 3100 nM |

— patent US6506751B1, “Thiazolidinone compounds useful as chemokine inhibitors” (Millennium Pharmaceuticals, Inc., priority 1999, dated 2003)
